How the values were obtained:
[1] = target: T1, Tyrosine-protein kinase ITK/TSK (Homo sapiens) (UniProt Q08881); test: Selectivity interaction (SelectScreen profiling (Invitrogen)) EUB0000607a ITK; settings: at 2 µM
T1 sequence (whole entry): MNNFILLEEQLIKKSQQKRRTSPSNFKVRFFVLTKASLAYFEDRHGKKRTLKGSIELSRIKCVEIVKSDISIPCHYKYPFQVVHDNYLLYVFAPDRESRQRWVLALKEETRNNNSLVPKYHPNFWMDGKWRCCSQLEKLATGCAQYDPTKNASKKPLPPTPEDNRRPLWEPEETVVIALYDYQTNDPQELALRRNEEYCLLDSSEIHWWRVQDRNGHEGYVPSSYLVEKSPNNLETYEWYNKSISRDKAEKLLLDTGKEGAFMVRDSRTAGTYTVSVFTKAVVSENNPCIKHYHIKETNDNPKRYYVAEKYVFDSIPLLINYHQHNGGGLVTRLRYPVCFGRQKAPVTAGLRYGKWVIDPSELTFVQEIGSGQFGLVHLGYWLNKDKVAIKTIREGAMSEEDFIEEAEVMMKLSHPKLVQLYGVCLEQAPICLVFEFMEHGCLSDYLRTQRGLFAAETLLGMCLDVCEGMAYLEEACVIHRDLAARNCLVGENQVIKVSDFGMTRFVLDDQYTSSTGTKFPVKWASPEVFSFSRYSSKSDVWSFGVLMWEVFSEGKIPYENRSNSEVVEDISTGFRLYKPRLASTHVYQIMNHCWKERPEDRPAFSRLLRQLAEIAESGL

[2] = target: T2, Serine/threonine-protein kinase ULK3 (Homo sapiens) (UniProt Q6PHR2); test: Selectivity interaction (KinomeScan (DiscoverX)) EUB0000607a ULK3; settings: at 10 µM
T2 sequence (whole entry): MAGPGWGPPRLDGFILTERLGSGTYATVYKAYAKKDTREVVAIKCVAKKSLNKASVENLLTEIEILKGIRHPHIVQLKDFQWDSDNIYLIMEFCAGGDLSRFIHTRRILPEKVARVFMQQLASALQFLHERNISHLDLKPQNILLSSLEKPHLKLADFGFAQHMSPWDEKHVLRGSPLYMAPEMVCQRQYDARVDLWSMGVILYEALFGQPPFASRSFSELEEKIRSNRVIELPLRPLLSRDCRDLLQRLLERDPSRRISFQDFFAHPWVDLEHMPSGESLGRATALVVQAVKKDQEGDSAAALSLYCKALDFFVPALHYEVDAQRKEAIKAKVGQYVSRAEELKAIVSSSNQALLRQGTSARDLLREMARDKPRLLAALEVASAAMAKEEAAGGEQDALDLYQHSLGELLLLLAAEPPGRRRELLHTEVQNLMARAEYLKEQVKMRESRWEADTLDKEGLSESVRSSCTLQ

[3] = target: T3, Diacylglycerol kinase eta (Homo sapiens) (UniProt Q86XP1); test: Selectivity interaction (Kinase panel (KiNativ target engagement assay in Jurkat cells)) EUB0001635a DGKH; format: cell-based; settings: Selectivity number of off-targets 0.0, Selectivity number of targets 233.0, Source Knowledge https://www.sciencedirect.com/science/article/pii/S2451945619300674?via%3Dihub, at 1 µM
T3 sequence (whole entry): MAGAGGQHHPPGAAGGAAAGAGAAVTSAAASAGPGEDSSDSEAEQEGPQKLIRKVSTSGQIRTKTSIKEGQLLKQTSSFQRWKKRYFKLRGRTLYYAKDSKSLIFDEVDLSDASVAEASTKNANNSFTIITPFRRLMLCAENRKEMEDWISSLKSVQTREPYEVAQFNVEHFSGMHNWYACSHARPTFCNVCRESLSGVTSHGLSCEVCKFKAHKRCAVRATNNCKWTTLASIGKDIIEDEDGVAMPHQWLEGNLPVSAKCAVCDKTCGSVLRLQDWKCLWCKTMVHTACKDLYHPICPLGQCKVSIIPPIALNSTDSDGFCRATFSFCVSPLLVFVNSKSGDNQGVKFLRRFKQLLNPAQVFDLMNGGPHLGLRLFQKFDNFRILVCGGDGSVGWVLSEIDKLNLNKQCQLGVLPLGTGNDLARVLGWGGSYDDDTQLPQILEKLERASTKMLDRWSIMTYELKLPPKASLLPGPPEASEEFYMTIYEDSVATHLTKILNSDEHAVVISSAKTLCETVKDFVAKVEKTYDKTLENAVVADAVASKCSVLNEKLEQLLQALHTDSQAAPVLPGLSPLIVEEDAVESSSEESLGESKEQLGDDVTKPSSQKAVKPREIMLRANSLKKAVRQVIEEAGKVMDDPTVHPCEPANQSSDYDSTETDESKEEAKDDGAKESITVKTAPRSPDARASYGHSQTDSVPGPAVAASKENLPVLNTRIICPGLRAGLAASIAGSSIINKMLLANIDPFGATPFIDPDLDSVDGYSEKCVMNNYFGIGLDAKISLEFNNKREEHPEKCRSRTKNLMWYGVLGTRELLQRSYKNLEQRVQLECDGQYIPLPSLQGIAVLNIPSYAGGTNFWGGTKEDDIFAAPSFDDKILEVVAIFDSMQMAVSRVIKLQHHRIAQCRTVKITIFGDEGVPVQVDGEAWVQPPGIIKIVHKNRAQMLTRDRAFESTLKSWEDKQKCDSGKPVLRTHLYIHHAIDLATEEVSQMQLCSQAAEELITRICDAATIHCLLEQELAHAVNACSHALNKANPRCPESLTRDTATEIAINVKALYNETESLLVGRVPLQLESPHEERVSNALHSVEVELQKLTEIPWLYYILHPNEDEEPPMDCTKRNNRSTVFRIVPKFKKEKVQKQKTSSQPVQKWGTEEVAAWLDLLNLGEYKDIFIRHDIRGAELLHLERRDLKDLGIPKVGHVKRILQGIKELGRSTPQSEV

## CNC(=O)Nc1ccc(-c2nc(N3CC4CCC(C3)O4)c3cnn(C4CCC5(CC4)OCCO5)c3n2)cc1
[1]
  % of inhibition: 2%
[2]
  % of control: 92%

## C=CC(=O)Nc1ccc(C(=O)Nc2[nH]nc3c2CN(C(=O)N[C@H](CN(C)C)c2ccccc2)C3(C)C)cc1
[3]
  % of engagement: 16.5%

From ChEMBL document CHEMBL5465560, “Selectivity Literature for EUbOPEN Chemogenomic Library” (2024)
